Data from ChEMBL document CHEMBL3244073, “1,2,4-Triazole amino nucleosides. 1-beta-D-3'-Amino-3'-deoxyribofuranosyl-1,2,4-triazole-3-carboxamide and related nucleosides” (1977).
The source made the active and inactive calls. The calls are words filed in the database; no cut-off is given here.

tested on: Vaccinia virus; experiment: Antiviral activity against Vaccinia virus Lederle Chorioallantoic assessed as inhibition of virus-induced cytopathogenicity; type: functional, organism-based; settings: Orthopoxvirus vaccinia

SMILES	Activity
N/N=C(/N)c1ncn([C@@H]2O[C@H](CO)[C@@H](N)[C@H]2O)n1	inactive
NC(=O)c1ncn([C@@H]2O[C@H](CO)[C@@H](N)[C@H]2O)n1	inactive
NC(=O)c1ncnn1[C@@H]1O[C@H](CO)[C@@H](N)[C@H]1O	inactive
N/C(=N/O)c1ncn([C@@H]2O[C@H](CO)[C@@H](N)[C@H]2O)n1	inactive
N[C@H]1[C@@H](O)[C@H](n2cnc(C(=O)NO)n2)O[C@@H]1CO	inactive
NNC(=O)c1ncn([C@@H]2O[C@H](CO)[C@@H](N)[C@H]2O)n1	inactive
